Data as given in patent publication US4912119A, “Imidazolylguanidine derivatives and compositions containing these compounds” (Heumann Pharma GmBH & Co., priority 1986, dated 1990).
Where a name gives a salt, the structure may show the parent alone.

What was measured:
[1] = target: T1, histamine H1 receptor (Cavia porcellus, UniProt P31389); experiment: H1-antagonistic activity in vitro, isolated guinea-pig ileum (method of Arunlakshana and Schild); format: biochemical; conditions: for Kb: read-out: pA2 -value (Ileum) (converted)
T1 construct: determined on isolated atrium and ileum of guinea-pig; from tissue; host or cells: isolated guinea-pig ileum
Excerpt: (§1) The compounds according to this invention are distinguished by a novel, hitherto unknown and undescribed pharmacological overall activity. The new class of structure according to this invention has both a H1 -antagonistic active component and an H2 -agonistic component. These manifest the pharmacological results shown below. One recognized method of determining the H1 -antagonistic activity is the determination of the pA2 -values in vitro (O. Arunlakshana and H. O. Schild, (1959), "Some Quantitative Uses of Drug Antagonists", Br. J. Pharmac. Chemother, 14, 48-58). To determine the H2 -agonistic activity (pD2 -values), the method of J. M. van Rossum, (1963) is employed, described in "Cumulative Dose-Response Curves II. Technique for the Making of Dose-Response Curves in Isolated Organs and the Evaluation of Drug Parameters", Arch. Intern. Pharmacodyn. Therap. 143, 299-307. |(determined on isolated atrium and ileum of guinea-pig)

[2] = target: T2, histamine-H2 receptors (Cavia porcellus, UniProt P47747); experiment: H2-agonistic activity, isolated guinea-pig atrium (method of van Rossum, cumulative dose-response curves); format: biochemical; conditions: read-out: pD2 -value (Atrium) (converted)
T2 construct: determined on isolated atrium and ileum of guinea-pig; from tissue; host or cells: isolated guinea-pig atrium
Excerpt: as §1

T1 sequence (P31389 whole entry): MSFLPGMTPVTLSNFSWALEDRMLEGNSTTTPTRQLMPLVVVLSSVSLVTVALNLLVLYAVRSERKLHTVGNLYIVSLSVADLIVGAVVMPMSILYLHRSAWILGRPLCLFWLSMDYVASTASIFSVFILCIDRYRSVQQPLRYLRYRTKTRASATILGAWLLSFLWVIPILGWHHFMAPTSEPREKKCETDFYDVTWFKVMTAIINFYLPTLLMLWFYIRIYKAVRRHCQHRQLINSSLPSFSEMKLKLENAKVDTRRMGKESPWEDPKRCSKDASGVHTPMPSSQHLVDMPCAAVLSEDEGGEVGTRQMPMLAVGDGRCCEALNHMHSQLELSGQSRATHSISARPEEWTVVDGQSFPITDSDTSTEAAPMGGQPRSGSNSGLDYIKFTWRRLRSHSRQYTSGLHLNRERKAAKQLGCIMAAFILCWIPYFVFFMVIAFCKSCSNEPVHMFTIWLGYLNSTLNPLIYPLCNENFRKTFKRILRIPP
T2 sequence (P47747 whole entry): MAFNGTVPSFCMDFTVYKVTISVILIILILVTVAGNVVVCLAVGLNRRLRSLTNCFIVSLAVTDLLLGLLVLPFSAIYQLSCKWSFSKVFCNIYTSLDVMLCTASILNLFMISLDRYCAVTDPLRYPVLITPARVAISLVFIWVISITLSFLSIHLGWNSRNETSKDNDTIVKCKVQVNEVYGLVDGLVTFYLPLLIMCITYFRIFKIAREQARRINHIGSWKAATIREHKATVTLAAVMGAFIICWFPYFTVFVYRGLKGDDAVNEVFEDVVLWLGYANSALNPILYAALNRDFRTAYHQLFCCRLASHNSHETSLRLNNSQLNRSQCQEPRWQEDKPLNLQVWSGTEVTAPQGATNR

N=C(NCCCCc1ccccn1)NCCCc1c[nH]cn1 [Example 2, N^1-[3-(1H-Imidazol-4-yl)propyl]-N^2-[4-(pyridin-2-yl)butyl]-guanidine hydriodide]
Kb [1]: 309 nM | EC50 [2]: 112 nM

N=C(NCCCc1c[nH]cn1)NCCC(c1cc(F)cc(F)c1)c1ccccn1 (centres unmarked) [Example 18, N^1-[3-(3,5-Difluorophenyl)-3-(pyridin-2-yl)propyl]-N^2-[3-(1H-imidazol-4-yl)propyl]-guanidine]
Kb [1]: 282 nM | EC50 [2]: 8.91 nM

NC(=NCCCc1c[nH]cn1)NCCC(c1cccc(Cl)c1)c1ccccn1 (centres unmarked) [Example 20, N^1-[3-(3-Chlorophenyl)-3-(pyridin-2-yl)propyl]-N^2-[3-(1H-imidazol-4-yl)propyl]-guanidine]
pA2 -value (Ileum) [1]: 7.05 | EC50 [2]: 11.5 nM

NC(=NCCCc1c[nH]cn1)NCCC(c1ccc(F)cc1)c1cccnc1 (centres unmarked) [Example 24, N^1-[3-(4-Fluorophenyl)-3-(pyridin-3-yl)propyl]-N^2-[3-(1H-imidazol-4-yl)-propyl]-guanidine]
pA2 -value (Ileum) [1]: 6.71 | EC50 [2]: 8.13 nM

N=C(NCCCc1c[nH]cn1)NCCN(Cc1cccs1)c1ccccn1 [Example 4, N^1-[3-(1H-Imidazol-4-yl)propyl]-N^2 [2-[N-(pyridin-2-yl)-N-(thiophen-2-yl-methyl)amino]ethyl]-guanidine hydriodide]
Kb [1]: 9.12 nM | EC50 [2]: 437 nM

N=C(NCCCc1c[nH]cn1)NCCCN(Cc1ccc(Cl)cc1)c1ccccn1 [Example 3, N^1-[3-(1H-Imidazol-4-yl)propyl]-N^2-[3-[N-(4-chlorobenzyl)-N-(pyridin-2-yl)amino]propyl]-guanidine hydriodide]
Kb [1]: 2.51 nM | EC50 [2]: 2140 nM

N=C(NCCCc1c[nH]cn1)NCCC(c1ccc(Cl)c(Cl)c1)c1ccccn1 (centres unmarked) [Example 14, N^1-[3-(3,4-Dichlorophenyl)-3-(pyridin-2-yl)propyl]-N^2-[3-(1H-imidazol-4-yl)propyl]-guanidine]
Kb [1]: 115 nM | EC50 [2]: 6.31 nM

N=C(NCCCc1c[nH]cn1)NCCC(c1ccccn1)c1ccc(Cl)cc1Cl (centres unmarked) [Example 16, N^1-[3-(2,4-Dichlorophenyl)-3-(pyridin-2-yl)propyl]-N^2-[3-(1H-imidazol-4-yl)-propyl]-guanidine]
Kb [1]: 112 nM | EC50 [2]: 13.8 nM

CC(CCNC(=N)NCCCc1c[nH]cn1)(c1ccccc1)c1ccccc1 [Example 8, N^1-[3-(1H-Imidazol-4-yl)propyl]-N^2-(3,3-diphenylbutyl)-guanidine hydrochloride]
Kb [1]: 37.2 nM | EC50 [2]: 123 nM

NC(=NCCCc1c[nH]cn1)NCCC(c1ccc(F)c(F)c1)c1ccccn1 (centres unmarked) [Example 17, N^1-[3-(3,4-Difluorophenyl)-3-(pyridin-2-yl)propyl]-N^2-[3-(1H-imidazol-4-yl)propyl]-guanidine]
pA2 -value (Ileum) [1]: 7.07 | EC50 [2]: 7.59 nM
